How the values were obtained:
[1] = In vitro iontophoretic delivery of MTX through hairless (nude) rat skin, Franz diffusion cells; format: in vitro ADME
Protocol: The delivery of MTX under 30 mins of iontophoresis (0.4 mA/cm^2) was studied at buffer strengths 0.05-0.5 M and drug concentrations 10-20 mg/ml. The effect of current density and time of application on the delivery of MTX is studied by optimizing the full-factorial design. The current density (X1) and time of application (X2) are the independent factors chosen for the factorial design with 4 and 5 levels, respectively in the range of 0.05-0.5 mA (X1) and 10-120 mins (X2).
In vitro iontophoretic experiments (n≧3) were performed using freshly excised hairless rat skin mounted on vertical Franz diffusion cells with stratum corneum facing towards the donor chamber. The donor compartment contained 15 mg/ml of MTX in phosphate buffer of pH 7.4 (0.25 M) and the receptor compartment contained phosphate buffer of pH 7.4 (0.25 M) with 75 mM NaCl.
A silver-silver chloride electrode (cathode) was placed in the donor chamber and silver wire (anode) was placed in the receptor compartment. Samples were taken at periodic intervals and were analyzed by HPLC, using YMC RP 18 column. Mobile Phase was composed of monobasic sodium phosphate (10%) and Tris HCl buffer (90%). Flow rate was 1.5 ml/min and detection wavelength was 303 nm.

[2] = cited from earlier work

delivery at 15 versus 20 mg/ml ([1]; 0.25 M buffer strength, 30 mins iontophoresis 0.4 mA/cm^2): not statistically different
amount of drug delivered, effect of MTX concentration 10 to 15 mg/ml ([1]; 0.25 M buffer strength, 30 mins iontophoresis 0.4 mA/cm^2, FIG. 2): increased
delivery, increase in time of application from 10-120 mins ([1]; at 0.05 mA): did not show any enhanced delivery
maximal flux ([1]; buffer strength 0.25 M, drug concentration 15 mg/ml, across hairless rat skin): about 0.6 μg/cm^2-hr
cumulative amount of MTX delivered, effect of increase in current density and time of application ([1]; factorial design, 0.05-0.5 mA, 10-120 mins, 15 mg/ml MTX, phosphate buffer pH 7.4 0.25 M, FIG. 3, 4): also increased
SMILES: CN(Cc1cnc2nc(N)nc(N)c2n1)c1ccc(C(=O)N[C@@H](CCC(=O)O)C(=O)O)cc1 [MTX, Methotrexate]
cumulative amount delivered, increase in current density from 0.05 to 0.5 mA ([1]; 10 min iontophoresis): did not show a statistically significant increase
cumulative amount of MTX delivered across hairless rat skin, effect of buffer ionic strength ([1]; 30 mins iontophoresis 0.4 mA/cm^2, buffer strengths 0.05-0.5 M, FIG. 1): increased with decrease in ionic strength of the buffer
cumulative amount of drug delivered versus model prediction ([1]; current density 0.4 mA/cm^2, ITP for 30 mins): in between the lower and upper 95% confidence level
charge at physiological pH [2]: negatively charged
